Experiment: Binding affinity towards folate binding protein

Row | IC50 | SMILES
1 | 8.14 nM | Cc1ccc(S(=O)(=O)N(CCCS(=O)(=O)[O-])C(=O)c2c3ccccc3[n+](CCCCCCCCCC(=O)NCCCCCCNC(=O)c3ccc(N(Cc4cnc5nc(N)nc(O)c5n4)C(=O)C(F)(F)F)cc3)c3ccccc23)cc1
2 | 8.43 nM | Cc1ccc(S(=O)(=O)N(CCCC(=O)NCCCCCCNC(=O)c2ccc(N(Cc3cnc4nc(N)nc(O)c4n3)C(=O)C(F)(F)F)cc2)C(=O)c2c3ccccc3[n+](CCCS(=O)(=O)[O-])c3ccccc23)cc1

— ChEMBL document CHEMBL1147573, “Chemiluminescence quenching of pteroic acid-N-sulfonyl-acridinium-9-carboxamide conjugates by folate binding protein” (Bioorg Med Chem Lett, 2004)
